The record followed here is ChEMBL document CHEMBL1201862, “PubChem BioAssay data set” (2004).

SMILES strings stand for the structures.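 Step 1: Grow cells in 96-well plates. Step 2: Expose to compound for 48 hours at 5 concentrations. Step 3: Interpolate endpoints linearly; if unreached, use highest concentration. GI50: concentration for 50% inhibition of growth.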 Activity calls are given as the source filed them. Rule as the data show it: active = GI50 up to about 1.1 µM and inactive = higher.

What all share (test): DTP human tumour cell line panel, 48 h
Assay [1] relates to K562.
In assay [2] the test system is HT-29.
For assay [3], the system named is OVCAR-3.
The subject of assay [4] is EKVX.
The subject of assay [5] is IGROV-1.
Assay [6] deals with UO-31.
Assay [7] concerns HCT-116.
For assay [8], the system named is SF-295.
For assay [9], the system named is OVCAR-8.
Assay [10] has as its system SW-620.
Assay [11] relates to COLO 205.
The test system of assay [12] is SK-OV-3.
Assay [13] concerns HOP-92.
For assay [14], the system named is OVCAR-5.
The test system of assay [15] is 786-0.
In assay [16] the test system is SF-268.
The test system of assay [17] is SNB-75.
Assay [18] concerns KM12.
For assay [19], the system named is SR.

For the compound `CCOc1ccccc1NC(=O)C(=O)CC(=O)C1=C(C)Nc2ccccc2S1`, the GI50 is > 30.5 µM (inactive) in [1]; > 100 µM (inactive) in assay [2]; > 100 µM (inactive) in [3]; > 100 µM (inactive) in [4]; > 100 µM (inactive) in assay [5]; > 93.3 µM (inactive) in assay [6]. Also, the GI50 in assay [7], in assay [8], in [9], in assay [10], in assay [11] and in assay [12] was > 100 µM (inactive) in each case. The GI50 in [13], in [14], in [15], in assay [16], in [17] and in assay [18] was > 100 µM (inactive) throughout.
As to `CC(=O)Oc1c2c(c(OC(C)=O)c3c1n(C(C)=O)c1ccccc1n3C(C)=O)n(C(C)=O)c1ccccc1n2C(C)=O`, the GI50 in assay [1] is 2.86 µM (inactive); in [2], 3.18 µM (inactive); in assay [3], 1.92 µM (inactive); in assay [4], > 10 µM (inactive); in assay [5], > 10 µM (inactive); in [6] it was 12.6 µM (inactive). Besides, the GI50 in assay [19] was 2.62 µM (inactive); in [7] it was 1.95 µM (inactive); in assay [8] it was 8.81 µM (inactive); in assay [9], 2.95 µM (inactive); in assay [10], 1.94 µM (inactive); in assay [12], 23.6 µM (inactive). The GI50 in assay [15] was 3.46 µM (inactive); in [16], 7.05 µM (inactive); in [17], 11.5 µM (inactive); in assay [18], 3.76 µM (inactive).
In the case of `COc1cc(C2c3cc4c(cc3C(NCC(O)CO)C3COC(=O)[C@H]23)OCO4)cc(OC)c1OC` (stereo partly drawn), the GI50 in assay [1] was 0.361 µM (active); in [2] it was 0.34 µM (active); in [4], 0.4 µM (active); in assay [5], > 100 µM (inactive); in assay [6], 4.37 µM (inactive); in assay [19], 0.177 µM (active). The 50% growth inhibitory concentration (GI50) in [8] is 0.213 µM (active); in assay [9], 0.429 µM (active); in assay [10] it was 0.51 µM (active); in assay [11], 0.184 µM (active); in assay [12], 0.422 µM (active); in assay [14] it was > 100 µM (inactive). For the same compound, the GI50 was 0.578 µM (active) in assay [15], 0.374 µM (active) in assay [16], 0.318 µM (active) in assay [17] and 0.217 µM (active) in [18].
On to `CO[C@H](C(=O)O[C@H]1C(=O)N2CCC3CCC1C32C)c1ccccc1` (stereo partly drawn), for which the GI50 in [1], in [2], in assay [3], in assay [4], in [5] and in assay [6] was > 100 µM (inactive) each time. In addition, the GI50 in assay [19], in assay [7], in [8], in assay [9], in [10] and in assay [11] was > 100 µM (inactive) throughout. The GI50 in assay [12], in assay [14], in assay [15], in assay [16], in [17] and in assay [18] was > 100 µM (inactive) throughout.

In general, GI50 refers to the concentration that inhibits growth by half.
